target: T1, human TREK-1 (Homo sapiens, UniProt O95069); assay: TREK-1 Thallium (Tl+) flux assay, Method 1; type: cell-based; details: TREK-1 Thallium (Tl+) flux assay; no *^12 (Method 2) mark on these rows
T1 construct: expressed in transfected cells
T1 sequence (O95069 1-426): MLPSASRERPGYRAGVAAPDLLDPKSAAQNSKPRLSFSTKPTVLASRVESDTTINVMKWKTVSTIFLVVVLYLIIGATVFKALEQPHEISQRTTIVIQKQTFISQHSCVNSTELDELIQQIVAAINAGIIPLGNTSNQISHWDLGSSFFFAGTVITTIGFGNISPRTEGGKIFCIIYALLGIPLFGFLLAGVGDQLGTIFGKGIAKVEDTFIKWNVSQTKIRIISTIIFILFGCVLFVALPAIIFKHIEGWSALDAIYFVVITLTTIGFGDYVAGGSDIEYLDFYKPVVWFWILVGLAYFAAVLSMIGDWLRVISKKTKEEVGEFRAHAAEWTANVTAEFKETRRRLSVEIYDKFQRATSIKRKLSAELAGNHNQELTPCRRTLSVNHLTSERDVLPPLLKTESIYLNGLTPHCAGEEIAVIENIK
Summary of the method: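 CHO-K1 cells stably expressing human TREK-1, loaded with Thallos dye, received compound or 0.3% DMSO vehicle for 10 min before thallium stimulus buffer. ΔRatio is fluorescence at 25 s after thallium addition over mean pre-addition fluorescence; % inhibition calculated from it.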

`Cc1cc(C#Cc2ccccc2)cnc1NC(=O)c1c(Cl)cnn1[C@H]1C[C@@H]2CN(C(=O)C(C)(C)C)C[C@@H]2C1` [Compound 352, 4-chloro-1-[(3aR,5s,6aS)-2-(2,2-dimethylpropanoyl)octahydrocyclopenta [c]pyrrol-5-yl]-N-[3-methyl-5-(phenylethynyl)pyridin-2-yl]-1H-pyrazole-5-carboxamide] and `Cc1cc(C#Cc2ccccc2)cnc1NC(=O)c1c(Cl)cnn1[C@H]1C[C@@H]2CN(C(=O)OC(C)(C)C)C[C@@H]2C1` [Compound 329, tert-butyl (3aR,5s,6aS)-5-(4-chloro-5-{[3-methyl-5-(phenylethynyl)pyridin-2-yl]carbamoyl}-1H-pyrazol-1-yl)hexahydrocyclopenta[c]pyrrole-2(1H)-carboxylate] are within 1.5-fold of each other in IC50: 840 nM for the first, 650 nM for the second.

Compared with `O=C(Nc1ncc(C#Cc2ccccc2)cc1Cl)c1c(Cl)cnn1C[C@H]1COCCO1` [Compound 361, (S)-1-((1,4-dioxan-2-yl)methyl)-4-chloro-N-(3-chloro-5-(phenylethynyl)pyridin-2-yl)-1H-pyrazole-5-carboxamide], `O=C(Nc1ncc(C#Cc2ccccc2)cc1Cl)c1c(Cl)cnn1[C@@H]1CCOC1` [Compound 376, (R)-4-chloro-N-(3-chloro-5-(phenylethynyl)pyridin-2-yl)-1-(tetrahydrofuran-3-yl)-1H-pyrazole-5-carboxamide] is 1.7-fold higher in IC50: 910 nM for the first, 1540 nM for the second.

`Cc1cc(C#Cc2ccc(F)cc2)cnc1NC(=O)c1c(Cl)cnn1CC1CCCN(C(=O)C2COCCO2)C1` (stereo not drawn) [Compound 223, 1-((1-(1,4-dioxane-2-carbonyl)piperidin-3-yl)methyl)-4-chloro-N-(5-((4-fluorophenyl)ethynyl)-3-methylpyridin-2-yl)-1H-pyrazole-5-carboxamide] and `CC(=O)N1CCC(Cn2ncc(Cl)c2C(=O)Nc2ncc(C#Cc3ccc(F)cc3)cc2C)CC1` [Compound 256, 1-((1-acetylpiperidin-4-yl)methyl)-4-chloro-N-(5-((4-fluorophenyl)ethynyl)-3-methylpyridin-2-yl)-1H-pyrazole-5-carboxamide] are within 1.5-fold of each other in IC50: 340 nM for the first, 420 nM for the second.

`CC1CN(C(=O)OC(C)(C)C)CCC1Cn1ncc(Cl)c1C(=O)Nc1ncc(C#Cc2ccccc2)cc1F` (stereo not drawn) [Compound 318, tert-butyl 4-((4-chloro-5-((3-fluoro-5-(phenylethynyl)pyridin-2-yl)carbamoyl)-1H-pyrazol-1-yl)methyl)-3-methylpiperidine-1-carboxylate] and `CC(C)(C)OC(=O)N1CCN(CCn2ncc(Cl)c2C(=O)Nc2ncc(C#Cc3ccccc3)cc2F)CC1` [Compound 257, tert-butyl 4-(2-(4-chloro-5-((3-fluoro-5-(phenylethynyl)pyridin-2-yl)carbamoyl)-1H-pyrazol-1-yl)ethyl)piperazine-1-carboxylate] are within 1.5-fold of each other in IC50: 610 nM for the first, 420 nM for the second.

`O=C(Nc1c(F)cc(C#Cc2ccccc2)cc1F)c1c(Cl)cnn1C[C@H]1COCCO1` [Compound 252, (S)-1-((1,4-dioxan-2-yl)methyl)-4-chloro-N-(2,6-difluoro-4-(phenylethynyl)phenyl)-1H-pyrazole-5-carboxamide] and `O=C(Nc1c(F)cc(C#Cc2ccccc2)cc1F)c1c(Cl)cnn1C1CCOCC1` [Compound 201, 4-chloro-N-(2,6-difluoro-4-(phenylethynyl)phenyl)-1-(tetrahydro-2H-pyran-4-yl)-1H-pyrazole-5-carboxamide] are within 1.5-fold of each other in IC50: 410 nM for the first, 310 nM for the second.

`N#CC1CC(n2ncc(Cl)c2C(=O)Nc2ncc(C#Cc3ccccc3)cc2F)C1` (stereo not drawn) [Compound 266, 4-chloro-1-(3-cyanocyclobutyl)-N-(3-fluoro-3-(phenylethynyl)pyridin-2-yl)-1H-pyrazole-5-carboxamide] and `Cc1cc(C#Cc2ccccc2)cnc1NC(=O)c1c(Cl)cnn1C1CC(C#N)C1` (stereo not drawn) [Compound 254, 4-chloro-1-(3-cyanocyclobutyl)-N-(3-methyl-5-(phenylethynyl)pyridin-2-yl)-1H-pyrazole-5-carboxamide] are within 1.5-fold of each other in IC50: 440 nM for the first, 420 nM for the second.

`Cc1cc(C#Cc2ccccc2)cnc1NC(=O)c1c(Cl)cnn1CC1CN(C(=O)C2CC2)C1` [Compound 274, 4-chloro-1-((1-(cyclopropanecarbonyl)azetidin-3-yl)methyl)-N-(3-methyl-5-(phenylethynyl)pyridin-2-yl)-1H-pyrazole-5-carboxamide] and `Cc1cc(C#Cc2ccccc2)cnc1NC(=O)c1c(Cl)cnn1C1CCC(C#N)C1` (stereo not drawn) [Compound 289, 4-chloro-1-(3-cyanocyclopentyl)-N-(3-methyl-5-(phenylethynyl)pyridin-2-yl)-1H-pyrazole-5-carboxamide] are within 1.5-fold of each other in IC50: 470 nM for the first, 510 nM for the second.

First: Cc1cc(C#Cc2ccccc2)cnc1NC(=O)c1c(Cl)cnn1C1CC2(C1)CN(C(=O)C(C)C)C2 [Compound 212, 4-chloro-1-(2-isobutyryl-2-azaspiro[3.3]heptan-6-yl)-N-(3-methyl-5-(phenylethynyl)pyridin-2-yl)-1H-pyrazole-5-carboxamide]
Second: Cc1cc(C#Cc2ccc(F)cc2)cnc1NC(=O)c1c(Cl)nn(C)c1-c1ccc2c(cnn2C)c1 [Compound 342, 3-chloro-N-(5-((4-fluorophenyl)ethynyl)-3-methylpyridin-2-yl)-1-methyl-5-(1-methyl-1H-indazol-5-yl)-1H-pyrazole-4-carboxamide]
The IC50 of the first is 2.3-fold lower: 330 nM for the first, 750 nM for the second. The first is the more potent here.

same assay, conditions: TREK-1 Thallium (Tl+) flux assay; values without footnote *12 are Method 1

`CC(C1CCN(C(=O)OC(C)(C)C)CC1)n1ncc(Cl)c1C(=O)Nc1ncc(C#Cc2ccccc2)cc1F` (stereo not drawn) [Compound 78, tert-butyl 4-(1-(4-chloro-5-((3-fluoro-5-(phenylethynyl)pyridin-2-yl)carbamoyl)-1H-pyrazol-1-yl)ethyl)piperidine-1-carboxylate] and `CC1(C(=O)N2CCC(n3ncc(Cl)c3C(=O)Nc3ncc(C#Cc4ccccc4)cc3F)CC2)CCC1` [Compound 112, 4-chloro-N-(3-fluoro-5-(phenylethynyl)pyridin-2-yl)-1-(1-(1-methylcyclobutane-1-carbonyl)piperidin-4-yl)-1H-pyrazole-5-carboxamide] are within 1.5-fold of each other in IC50: 160 nM for the first, 200 nM for the second.

`CCC(=O)N1CCC(n2ncc(Cl)c2C(=O)Nc2ncc(C#Cc3ccccc3)cc2C)C1` (stereo not drawn) [Compound 106, 4-chloro-N-(3-methyl-5-(phenylethynyl)pyridin-2-yl)-1-(1-propionylpyrrolidin-3-yl)-1H-pyrazole-5-carboxamide] and `CC(=O)N1CC[C@H](n2ncc(Cl)c2C(=O)Nc2ncc(C#Cc3ccccc3)cc2C)C[C@@H]1C` (single isomer, unassigned) [Compound 114, 1-[(2S,4S)-1-acetyl-2-methylpiperidin-4-yl]-4-chloro-N-[3-methyl-5-(phenylethynyl)pyridin-2-yl]-1H-pyrazole-5-carboxamide or 1-[(2R,4R)-1-acetyl-2-methylpiperidin-4-yl]-4-chloro-N-[3-methyl-5-(phenylethynyl)pyridin-2-yl]-1H-pyrazole-5-carboxamide] are within 1.5-fold of each other in IC50: 190 nM for the first, 200 nM for the second.

Going from `Cc1cc(C#Cc2ccccc2)cnc1NC(=O)c1c(Cl)cnn1CC1(C#N)CCN(C(=O)C(C)C)CC1` [Compound 49, 4-chloro-1-((4-cyano-1-isobutyrylpiperidin-4-yl)methyl)-N-(3-methyl-5-(phenylethynyl)pyridin-2-yl)-1H-pyrazole-5-carboxamide] to `Cc1cc(C#Cc2ccc(F)cc2)cnc1NC(=O)c1c(Cl)cnn1CC1(C#N)CCN(C(=O)C(C)C)CC1` [Compound 119, 4-chloro-1-((4-cyano-1-isobutyrylpiperidin-4-yl)methyl)-N-(5-((4-fluorophenyl)ethynyl)-3-methylpyridin-2-yl)-1H-pyrazole-5-carboxamide], the IC50 rises from 130 nM to 200 nM (1.5-fold).

`O=C(Nc1ncc(C#Cc2ccccc2)cc1F)c1c(Cl)cnn1C1CCOCC1` [Compound 51, 4-chloro-N-(3-fluoro-5-(phenylethynyl)pyridin-2-yl)-1-(tetrahydro-2H-pyran-4-yl)-1H-pyrazole-5-carboxamide] and `CC(=O)N[C@H]1CC[C@H](n2ncc(Cl)c2C(=O)Nc2ncc(C#Cc3ccccc3)cc2C)CC1` [Compound 47, 1-(trans-4-acetamidocyclohexyl)-4-chloro-N-(3-methyl-5-(phenylethynyl)pyridin-2-yl)-1H-pyrazole-5-carboxamide] are within 1.5-fold of each other in IC50: 140 nM for the first, 130 nM for the second.

Going from `CC(=O)N1CC[C@H](n2ncc(Cl)c2C(=O)Nc2ncc(C#Cc3ccccc3)cc2C)C[C@@H]1C` (single isomer, unassigned) [Compound 31, 1-[(2S,4S)-1-acetyl-2-methylpiperidin-4-yl]-4-chloro-N-[3-methyl-5-(phenylethynyl)pyridin-2-yl]-1H-pyrazole-5-carboxamide or 1-[(2R,4R)-1-acetyl-2-methylpiperidin-4-yl]-4-chloro-N-[3-methyl-5-(phenylethynyl)pyridin-2-yl]-1H-pyrazole-5-carboxamide] to `Cc1cc(C#Cc2ccc(F)cc2)cnc1NC(=O)c1c(Cl)cnn1C1CC2(C1)CN(C(=O)C1CC1)C2` [Compound 115, 4-chloro-1-(2-(cyclopropanecarbonyl)-2-azaspiro[3.3]heptan-6-yl)-N-(5-((4-fluorophenyl)ethynyl)-3-methylpyridin-2-yl)-1H-pyrazole-5-carboxamide], the IC50 rises from 100 nM to 200 nM (2-fold).

With `Cc1cc(C#Cc2ccccc2)cnc1NC(=O)c1c(Cl)cnn1-c1ccc2c(cnn2C)c1` [Compound 22, 4-chloro-1-(1-methyl-1H-indazol-5-yl)-N-(3-methyl-5-(phenylethynyl)pyridin-2-yl)-1H-pyrazole-5-carboxamide] the IC50 was 80 nM.

Source: patent publication US20240182445A1 (ONO PHARMACEUTICAL CO., LTD., priority 2019, published 2024)
